The values that follow come from ChEMBL document CHEMBL3991601, “The target landscape of clinical kinase drugs” (Science, 2017).

Active and inactive are the calls of the source. Some results are limits rather than exact numbers.

The target in experiment [1] is Tyrosine-protein kinase ABL2 (Homo sapiens, UniProt P42684).
The target in experiment [2] is T1, Acyl-CoA dehydrogenase family member 10 (Homo sapiens, UniProt Q6JQN1).
T1 sequence (Q6JQN1 whole entry): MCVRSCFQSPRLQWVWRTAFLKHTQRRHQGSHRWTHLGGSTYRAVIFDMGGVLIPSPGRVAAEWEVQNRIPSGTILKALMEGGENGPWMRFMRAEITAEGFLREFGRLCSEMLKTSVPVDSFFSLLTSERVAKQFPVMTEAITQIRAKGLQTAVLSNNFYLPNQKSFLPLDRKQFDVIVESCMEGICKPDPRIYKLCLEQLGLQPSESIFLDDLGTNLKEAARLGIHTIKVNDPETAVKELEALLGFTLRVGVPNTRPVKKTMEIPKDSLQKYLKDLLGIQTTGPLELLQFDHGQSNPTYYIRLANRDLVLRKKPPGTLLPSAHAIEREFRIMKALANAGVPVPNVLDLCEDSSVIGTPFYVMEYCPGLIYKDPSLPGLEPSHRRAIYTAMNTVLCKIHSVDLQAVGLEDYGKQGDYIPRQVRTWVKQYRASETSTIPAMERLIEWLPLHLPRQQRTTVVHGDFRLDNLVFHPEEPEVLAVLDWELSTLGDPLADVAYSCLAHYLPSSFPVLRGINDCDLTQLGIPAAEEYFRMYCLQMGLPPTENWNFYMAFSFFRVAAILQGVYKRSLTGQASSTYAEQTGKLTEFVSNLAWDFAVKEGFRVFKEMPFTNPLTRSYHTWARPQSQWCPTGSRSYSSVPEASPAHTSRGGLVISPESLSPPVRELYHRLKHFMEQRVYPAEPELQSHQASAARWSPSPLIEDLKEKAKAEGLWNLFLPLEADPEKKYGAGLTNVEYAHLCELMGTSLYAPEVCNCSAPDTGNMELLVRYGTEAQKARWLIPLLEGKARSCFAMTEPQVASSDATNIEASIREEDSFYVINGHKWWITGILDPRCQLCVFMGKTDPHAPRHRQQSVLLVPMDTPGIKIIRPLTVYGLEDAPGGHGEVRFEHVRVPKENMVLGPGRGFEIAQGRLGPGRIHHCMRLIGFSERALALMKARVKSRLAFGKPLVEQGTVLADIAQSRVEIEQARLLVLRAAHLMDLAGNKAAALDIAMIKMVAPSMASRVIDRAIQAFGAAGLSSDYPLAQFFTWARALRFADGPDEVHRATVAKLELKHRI

Experiment [3] addresses Atypical kinase COQ8A, mitochondrial (Homo sapiens, UniProt Q8NI60).
The target in experiment [4] is Mitogen-activated protein kinase 1 (Homo sapiens, UniProt P28482).
Chain of Mitogen-activated protein kinase 1 (P28482 whole entry): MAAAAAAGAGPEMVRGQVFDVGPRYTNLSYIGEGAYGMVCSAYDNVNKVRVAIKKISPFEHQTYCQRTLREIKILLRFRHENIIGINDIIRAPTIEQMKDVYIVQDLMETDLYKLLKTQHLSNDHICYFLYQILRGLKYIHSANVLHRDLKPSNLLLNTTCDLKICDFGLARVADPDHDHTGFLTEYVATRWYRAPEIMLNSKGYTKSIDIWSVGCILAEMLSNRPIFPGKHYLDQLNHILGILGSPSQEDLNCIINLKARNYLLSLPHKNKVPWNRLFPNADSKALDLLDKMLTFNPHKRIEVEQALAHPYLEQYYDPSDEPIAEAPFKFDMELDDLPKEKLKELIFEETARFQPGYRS
For experiment [5], the target named is Serine/threonine-protein kinase pim-1 (Homo sapiens, UniProt P11309).
Chain of Serine/threonine-protein kinase pim-1 (P11309 whole entry): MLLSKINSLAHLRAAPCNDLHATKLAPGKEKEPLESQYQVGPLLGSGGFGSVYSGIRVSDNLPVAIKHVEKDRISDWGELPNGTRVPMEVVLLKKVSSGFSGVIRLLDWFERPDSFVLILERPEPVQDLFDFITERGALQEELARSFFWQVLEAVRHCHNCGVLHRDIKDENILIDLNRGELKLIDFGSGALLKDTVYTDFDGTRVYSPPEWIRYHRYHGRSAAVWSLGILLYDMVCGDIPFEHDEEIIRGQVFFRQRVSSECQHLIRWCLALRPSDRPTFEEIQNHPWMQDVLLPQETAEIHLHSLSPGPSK
Experiment [6] concerns the target T2, Serine/threonine-protein kinase ULK1 (Homo sapiens, UniProt O75385).
T2 sequence (O75385 whole entry): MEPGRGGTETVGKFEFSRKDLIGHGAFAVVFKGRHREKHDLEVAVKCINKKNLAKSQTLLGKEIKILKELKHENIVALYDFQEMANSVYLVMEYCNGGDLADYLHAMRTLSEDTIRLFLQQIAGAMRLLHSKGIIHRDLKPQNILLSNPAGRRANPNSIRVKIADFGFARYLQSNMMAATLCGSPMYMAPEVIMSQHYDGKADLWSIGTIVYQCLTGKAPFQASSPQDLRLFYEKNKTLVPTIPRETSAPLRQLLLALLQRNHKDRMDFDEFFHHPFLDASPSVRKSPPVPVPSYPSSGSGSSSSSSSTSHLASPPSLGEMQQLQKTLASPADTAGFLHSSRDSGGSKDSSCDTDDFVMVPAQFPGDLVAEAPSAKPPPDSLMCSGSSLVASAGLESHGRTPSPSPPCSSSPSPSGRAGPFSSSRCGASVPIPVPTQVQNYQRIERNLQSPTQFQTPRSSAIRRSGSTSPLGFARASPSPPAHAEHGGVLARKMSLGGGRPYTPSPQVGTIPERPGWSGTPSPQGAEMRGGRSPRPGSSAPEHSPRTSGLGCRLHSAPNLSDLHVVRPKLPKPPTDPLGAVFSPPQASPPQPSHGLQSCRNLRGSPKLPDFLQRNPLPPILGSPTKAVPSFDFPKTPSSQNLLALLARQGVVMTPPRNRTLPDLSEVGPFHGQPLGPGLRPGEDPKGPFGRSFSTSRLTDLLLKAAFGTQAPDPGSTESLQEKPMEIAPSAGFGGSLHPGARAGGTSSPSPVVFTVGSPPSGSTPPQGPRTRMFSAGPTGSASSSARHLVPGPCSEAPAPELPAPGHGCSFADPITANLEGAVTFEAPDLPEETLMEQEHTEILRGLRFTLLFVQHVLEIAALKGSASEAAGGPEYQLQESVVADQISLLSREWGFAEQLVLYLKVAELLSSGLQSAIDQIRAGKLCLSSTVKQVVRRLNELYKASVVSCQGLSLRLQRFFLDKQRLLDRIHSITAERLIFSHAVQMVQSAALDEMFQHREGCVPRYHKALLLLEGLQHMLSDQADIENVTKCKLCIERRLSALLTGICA
Also: in the data inactive means no Kd found up to 30 µM.

Chain of Tyrosine-protein kinase ABL2 (P42684 whole entry): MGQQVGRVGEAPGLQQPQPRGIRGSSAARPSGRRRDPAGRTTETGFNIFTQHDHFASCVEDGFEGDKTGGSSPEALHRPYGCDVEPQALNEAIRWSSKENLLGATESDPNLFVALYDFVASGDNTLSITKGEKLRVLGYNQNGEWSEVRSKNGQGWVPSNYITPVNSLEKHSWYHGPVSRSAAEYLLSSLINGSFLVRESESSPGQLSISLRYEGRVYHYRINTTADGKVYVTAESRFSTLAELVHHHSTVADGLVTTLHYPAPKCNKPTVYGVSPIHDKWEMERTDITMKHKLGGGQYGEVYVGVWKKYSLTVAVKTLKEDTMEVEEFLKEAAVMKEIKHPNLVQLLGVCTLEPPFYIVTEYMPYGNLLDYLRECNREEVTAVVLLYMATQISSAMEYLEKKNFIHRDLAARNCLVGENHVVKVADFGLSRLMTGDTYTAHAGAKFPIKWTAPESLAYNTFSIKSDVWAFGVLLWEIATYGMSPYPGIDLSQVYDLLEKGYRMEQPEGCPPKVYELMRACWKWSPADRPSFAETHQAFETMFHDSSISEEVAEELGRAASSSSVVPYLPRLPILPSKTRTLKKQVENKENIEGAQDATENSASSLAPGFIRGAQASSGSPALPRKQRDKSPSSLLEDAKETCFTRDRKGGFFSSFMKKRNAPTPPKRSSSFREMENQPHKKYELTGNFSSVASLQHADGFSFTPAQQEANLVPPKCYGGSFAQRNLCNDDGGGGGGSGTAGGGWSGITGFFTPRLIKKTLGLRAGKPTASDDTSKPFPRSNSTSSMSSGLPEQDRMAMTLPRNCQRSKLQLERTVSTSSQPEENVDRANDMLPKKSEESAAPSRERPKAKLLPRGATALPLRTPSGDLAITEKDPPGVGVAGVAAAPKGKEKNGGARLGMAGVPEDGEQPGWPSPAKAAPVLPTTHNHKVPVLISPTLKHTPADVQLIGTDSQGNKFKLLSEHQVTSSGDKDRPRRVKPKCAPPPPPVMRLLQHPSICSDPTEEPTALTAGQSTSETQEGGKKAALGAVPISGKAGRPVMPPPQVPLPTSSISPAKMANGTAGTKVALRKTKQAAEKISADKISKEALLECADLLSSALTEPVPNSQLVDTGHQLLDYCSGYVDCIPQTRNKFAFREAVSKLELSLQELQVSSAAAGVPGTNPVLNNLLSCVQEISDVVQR
Chain of Atypical kinase COQ8A, mitochondrial (Q8NI60 whole entry): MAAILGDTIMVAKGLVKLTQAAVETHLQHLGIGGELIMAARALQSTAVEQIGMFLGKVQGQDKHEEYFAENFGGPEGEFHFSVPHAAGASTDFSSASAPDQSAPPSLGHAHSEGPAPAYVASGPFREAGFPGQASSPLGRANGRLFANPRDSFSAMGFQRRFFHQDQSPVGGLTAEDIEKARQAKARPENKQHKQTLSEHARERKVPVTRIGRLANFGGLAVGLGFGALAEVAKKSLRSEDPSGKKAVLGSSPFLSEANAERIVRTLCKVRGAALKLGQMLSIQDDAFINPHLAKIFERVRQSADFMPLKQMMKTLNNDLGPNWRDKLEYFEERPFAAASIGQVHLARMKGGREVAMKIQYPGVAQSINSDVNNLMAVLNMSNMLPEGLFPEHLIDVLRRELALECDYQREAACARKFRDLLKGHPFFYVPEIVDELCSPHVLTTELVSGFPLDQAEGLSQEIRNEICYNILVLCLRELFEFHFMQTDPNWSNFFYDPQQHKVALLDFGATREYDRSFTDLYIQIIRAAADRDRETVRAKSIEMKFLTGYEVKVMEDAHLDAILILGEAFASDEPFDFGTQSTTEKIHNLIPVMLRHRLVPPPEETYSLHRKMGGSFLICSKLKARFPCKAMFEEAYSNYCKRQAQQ

A word on the Kd: it is the constant that tells how readily two partners part at equilibrium. In the case of `Cc1nc2cc(-n3ncc(C(=O)c4cc5ccccc5[nH]4)c3N)ccc2[nH]1` [FGFR INHIBITOR DEBIO 1347], the Kd in experiment [1], in experiment [2], in experiment [3], in experiment [4], in experiment [5] and in experiment [6] was > 30 µM (inactive) throughout.
As for `O=C(Nc1nc2cccc(-c3ccc(CN4CCS(=O)(=O)CC4)cc3)n2n1)C1CC1` [FILGOTINIB], the Kd in experiment [1], in experiment [2], in experiment [3], in experiment [4], in experiment [5] and in experiment [6] was > 30 µM (inactive) in each case.
As to `Cc1cccc(-c2nn3c(c2-c2ccnc4ccc(C(N)=O)cc24)CCC3)n1` [GALUNISERTIB], the Kd in experiment [1] was > 30 µM (inactive); in experiment [2], > 30 µM (inactive); in experiment [3], 12.2 µM; in experiment [4], > 30 µM (inactive); in experiment [5], > 30 µM (inactive); in experiment [6], > 30 µM (inactive).
Regarding `CCn1cc(-c2ccnc3[nH]c(-c4cccc(CN(C)C)c4)cc23)c(-c2ccc(NC(=O)N(C)C)cc2)n1` [GSK-1070916], the Kd in experiment [1] is > 30 µM (inactive); in experiment [2] it was 1.11 µM (active); in experiment [3] it was > 30 µM (inactive); in experiment [4], > 30 µM (inactive); in experiment [5] it was > 30 µM (inactive); in experiment [6], > 30 µM (inactive).
Consider `COc1ccc(S(=O)(=O)N(C(C)=O)c2ccccc2/C=C/c2cc[n+]([O-])cc2)cc1` [HMN-214], for which the Kd in experiment [1], in experiment [2], in experiment [3], in experiment [4], in experiment [5] and in experiment [6] was > 30 µM (inactive) each time.
For `CNC(=O)c1cccc2cc(Oc3ccnc4cc(OCC5(N)CC5)c(OC)cc34)ccc12` [LUCITANIB], the Kd in experiment [1], in experiment [2], in experiment [3], in experiment [4], in experiment [5] and in experiment [6] was > 30 µM (inactive) in each case.
In the case of `CNC(=O)c1nn(C)c2c1C(C)(C)Cc1cnc(Nc3ccc(N4CCN(C)CC4)cc3)nc1-2` [MILCICLIB], the Kd in experiment [1] was 3.75 µM; in experiment [2], > 30 µM (inactive); in experiment [3], 3.01 µM (active); in experiment [4], > 30 µM (inactive); in experiment [5], > 30 µM (inactive); in experiment [6], 1.75 µM (active).
In the case of `NC1(c2ccc(-c3nc4ccn5c(=O)[nH]nc5c4cc3-c3ccccc3)cc2)CCC1` [MK-2206], the Kd in experiment [1], in experiment [2], in experiment [3], in experiment [4], in experiment [5] and in experiment [6] was > 30 µM (inactive) each time.
Turning to `Cn1cc(-c2cnc3ccc4ccc(CS(=O)(=O)NCc5ccccn5)cc4c(=O)c3c2)cn1` [MK-8033], the Kd in experiment [1], in experiment [2], in experiment [3], in experiment [4], in experiment [5] and in experiment [6] was > 30 µM (inactive) throughout.
For `FC(F)(F)c1ccc(/C=C/c2nc(COc3ccc(CCCCn4ccnn4)cc3)co2)cc1` [MUBRITINIB], the Kd in experiment [1], in experiment [2], in experiment [3], in experiment [4], in experiment [5] and in experiment [6] was > 30 µM (inactive) in each case.
With `CCCCCCCCCCCCCCCCCCOP(=O)([O-])OC1CC[N+](C)(C)CC1` [PERIFOSINE], the Kd in experiment [1], in experiment [2], in experiment [3], in experiment [4], in experiment [5] and in experiment [6] was > 30 µM (inactive) each time.
As to `Cc1nc(Nc2n[nH]c3c2CN(C(=O)N[C@H](CN(C)C)c2ccccc2)C3(C)C)c2sccc2n1` [PF-03758309], the Kd in experiment [1] was 0.939 µM (active); in experiment [2], > 30 µM (inactive); in experiment [3], > 30 µM (inactive); in experiment [4], 1.96 µM (active); in experiment [5] it was > 30 µM (inactive); in experiment [6], > 30 µM (inactive).
As for `Cc1cnc(NC(=O)Nc2cc(Br)c(C)cc2OC[C@@H]2CNCCO2)cn1` [RABUSERTIB], the Kd in experiment [1], in experiment [2], in experiment [3], in experiment [4], in experiment [5] and in experiment [6] was > 30 µM (inactive) in each case.
Turning to `CNC(=O)c1cc(Oc2ccc(NC(=O)Nc3cc(C(C)(C)C)nn3-c3ccc4ncccc4c3)c(F)c2)ccn1` [REBASTINIB], the Kd in experiment [1] was 0.135 µM (active); in experiment [2] it was > 30 µM (inactive); in experiment [3], > 30 µM (inactive); in experiment [4] it was > 30 µM (inactive); in experiment [5], > 30 µM (inactive); in experiment [6], > 30 µM (inactive).
As to `CO[C@H]1C[C@@H]2CC[C@@H](C)[C@@](O)(O2)C(=O)C(=O)N2CCCC[C@H]2C(=O)O[C@H]([C@H](C)C[C@@H]2CC[C@@H](OP(C)(C)=O)[C@H](OC)C2)CC(=O)[C@H](C)/C=C(\C)[C@@H](O)[C@@H](OC)C(=O)[C@H](C)C[C@H](C)/C=C/C=C/C=C/1C` [RIDAFOROLIMUS], the Kd in experiment [1], in experiment [2], in experiment [3], in experiment [4], in experiment [5] and in experiment [6] was > 30 µM (inactive) in each case.
On to `N#CC1(c2ccc(NC(=O)c3cccnc3NCc3ccncc3)cc2)CCCC1` [RIVOCERANIB], for which the Kd in experiment [1], in experiment [2], in experiment [3], in experiment [4], in experiment [5] and in experiment [6] was > 30 µM (inactive) each time.
For `O=c1[nH]ccc2cc(OC3CCNCC3)ccc12` [SAR-407899 FREE BASE], the Kd in experiment [1], in experiment [2], in experiment [3], in experiment [4], in experiment [5] and in experiment [6] was > 30 µM (inactive) throughout.
Regarding `Cn1cc(-c2cnn3c(N)c(Br)c([C@@H]4CCCNC4)nc23)cn1` [SCH-900776], the Kd in experiment [1] was > 30 µM (inactive); in experiment [2], > 30 µM (inactive); in experiment [3], > 30 µM (inactive); in experiment [4], > 30 µM (inactive); in experiment [5] it was 19.3 µM (active); in experiment [6], > 30 µM (inactive).
